From PubChem BioAssay (NCI)
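The compound was tested at five concentrations on cells cultured in 96-well plates, with a 48-hour exposure period. TGI is the concentration that stops growth completely.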

How the values were obtained:
Assay in all cases: NCI tumour cell line growth inhibition, 48 h
DU-145 prostate = system: DU-145 prostate
NCI-H522 lung = system: NCI-H522 lung
OVCAR-8 ovarian = system: OVCAR-8 ovarian
EKVX NSCLC = system: EKVX NSCLC
SK-MEL-2 melanoma = system: SK-MEL-2 melanoma
SN12C renal = system: SN12C renal
BT-549 breast = system: BT-549 breast
MOLT-4 leukemia = system: MOLT-4 leukemia
HL-60(TB) leukemia = system: HL-60(TB) leukemia
HOP-62 NSCLC = system: HOP-62 NSCLC

| Compound | TGI (DU-145 prostate) | TGI (NCI-H522 lung) | TGI (OVCAR-8 ovarian) | TGI (EKVX NSCLC) | TGI (SK-MEL-2 melanoma) | TGI (SN12C renal) | TGI (BT-549 breast) | TGI (MOLT-4 leukemia) | TGI (HL-60(TB) leukemia) | TGI (HOP-62 NSCLC) |
| --- | --- | --- | --- | --- | --- | --- | --- | --- | --- | --- |
| O=C(/C=C/c1ccccc1)CCc1c(O)c2ccccc2oc1=O | > 100 µM | > 100 µM | > 100 µM | > 100 µM | > 100 µM | > 100 µM | > 100 µM | > 100 µM | – | – |
| C=CCn1c(=O)c2ccccc2[n+]2c(-c3cccc([N+](=O)[O-])c3)csc12 | > 100 µM | > 100 µM | > 100 µM | > 100 µM | > 100 µM | > 100 µM | – | > 100 µM | 58.2 µM | > 100 µM |
| CCOC(=O)c1cn(C)nc1N/C(C)=C\C(=O)c1ccccc1 | > 100 µM | > 100 µM | > 100 µM | > 100 µM | – | > 100 µM | > 100 µM | > 100 µM | > 100 µM | > 100 µM |
| CC(=O)[C@H]1CCC2[C@@H]3CC=C4C(O)C(OS(=O)(=O)O)CC[C@]4(C)C3CC[C@@]21C (stereo partly specified) | – | > 100 µM | > 100 µM | > 100 µM | > 100 µM | > 100 µM | – | > 100 µM | > 31.6 µM | > 100 µM |
| C=C1CC(OC)(C(O)C(=O)N[C@H]2OCO[C@H]3C2O[C@H](C[C@H](O)COC)C(C)(C)C3OC)O[C@H](C)[C@@H]1C (stereo partly specified) | – | > 0.00772 µM | > 0.00772 µM | > 0.00772 µM | – | > 0.00772 µM | – | > 0.00772 µM | – | > 0.00772 µM |
| CN(C)C=Nc1nncc2n[nH]nc12 | > 100 µM | – | > 100 µM | > 100 µM | > 100 µM | > 100 µM | > 100 µM | > 100 µM | > 100 µM | > 100 µM |
| CCC1CCC2c3c([nH]c4ccccc34)C3C(=O)N(c4ccc(OC)cc4)C(=O)C3C2C1 (stereo unspecified) | > 100 µM | > 100 µM | > 100 µM | > 100 µM | – | > 100 µM | > 100 µM | 32.5 µM | 75 µM | > 100 µM |
| C/C(=C\CNc1nc(Cl)nc2nc[nH]c12)CO | > 100 µM | > 100 µM | > 100 µM | > 100 µM | – | > 100 µM | – | > 100 µM | > 100 µM | > 100 µM |
| CN(CCN(C)C(=O)CCn1ccc(=O)[nH]c1=O)C(=O)CCn1ccc(=O)[nH]c1=O | – | > 100 µM | > 100 µM | > 100 µM | > 100 µM | > 100 µM | – | > 100 µM | > 100 µM | > 100 µM |
| O=C(NCc1ccccc1)c1c(O)c2ccccc2[nH]c1=O | > 100 µM | > 100 µM | > 100 µM | > 100 µM | – | > 100 µM | > 100 µM | > 100 µM | > 100 µM | > 100 µM |
| O=C1OC(c2ccccc2)=N/C1=C/N1CCCC1C(=O)O (stereo unspecified) | – | > 100 µM | > 100 µM | > 100 µM | > 100 µM | – | – | – | > 100 µM | > 100 µM |
| c1ccc(COc2cccc3cccnc23)cc1 | – | > 100 µM | > 100 µM | > 100 µM | – | > 100 µM | – | > 100 µM | 57.5 µM | > 100 µM |
